Assay results: patent US12565491B2, “(Isopropyl-triazolyl)pyridinyl-substituted benzooxazinone or benzothiazinone derivatives and use thereof” (HK INNO.N CORPORATION, priority 2018, dated 2026)

target: T1, ASK-1 enzyme (Homo sapiens, UniProt Q99683); experiment: Inhibitory ability against ASK-1 enzyme activity (ADP-Glo Kinase Assay); type: biochemical; details: 250 μM ATP, MBP substrate, 30° C. for 40 minutes
T1 construct: purchased Signal Chem M13-11G-10
Experimental: Experimental Example 1: Assay of Inhibitory Ability Against ASK-1 Enzyme Activity (ADP-Glo™ Kinase Assay)
In order to evaluate the inhibitory ability of the compounds of Examples 1 to 25 against ASK-1 enzyme activity, the following experiment was carried out using ADP-Glo™ (Promega, Cat. No. V9101). Each of the compounds was prepared into a solution at concentrations of 0.32 nM, 1.6 nM, 8 nM, 40 nM, 200 nM, 1,000 nM by adding a kinase buffer solution (40 mM Tris, 20 mM MgCl2, 0.1 mg/mL bovine serum albumin in H2O). Subsequently, 250 μM of ATP (Promega, Cat. No. V915A) and 0.5 g/L of MBP substrate (Signal Chem, Cat. No. 42-51N) were added thereto, and the mixture was reacted at 30° C. for 40 minutes in the presence of 15 ng of ASK-1 enzyme (Signal Chem, Cat. No. M13-11G-10). Then, the ADP-Glo™ reagent and a kinase detection reagent were sequentially added thereto and reacted for 40 minutes and 10 minutes, respectively. After completion of the reaction, luminescence was measured using a Synergy™ NEO microplate reader (BioTEK, NEOB-1311189).
The inhibitory ability of the compounds of Examples 1 to 25 against ASK-1 enzyme activity was verified by analyzing data from the measured RLU values. Specifically, the inhibitory ability against ASK-1 enzyme activity was assessed by deriving the residual activity percentage of the ASK-1 enzyme in the samples treated with the compounds at the concentration to be tested, while using the RLU value of the sample not treated with the compounds as a 100% control.

T1 sequence (Q99683 649-946 limits assumed): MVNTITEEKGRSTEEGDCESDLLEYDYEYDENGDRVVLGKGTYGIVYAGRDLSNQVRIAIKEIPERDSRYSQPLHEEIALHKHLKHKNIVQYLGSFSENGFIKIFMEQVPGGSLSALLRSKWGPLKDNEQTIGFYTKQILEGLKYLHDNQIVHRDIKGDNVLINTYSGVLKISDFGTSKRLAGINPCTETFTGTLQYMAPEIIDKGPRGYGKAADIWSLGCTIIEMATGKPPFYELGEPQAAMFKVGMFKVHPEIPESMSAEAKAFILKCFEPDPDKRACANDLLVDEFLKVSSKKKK

| Compound | IC50 |
| --- | --- |
| CC(C)n1cnnc1-c1cccc(N2COc3ccc(-c4cnn(CC5CC5)c4)cc3C2=O)n1 [Example 1, 6-(1-(cyclopropylmethyl)-1H-pyrazol-4-yl)-3-(6-(4-isopropyl-4H-1,2,4-triazol-3-yl)pyridin-2-yl)-2,3-dihydro-4H-benzo[e][1,3]oxazin-4-one] | 9.3 nM |
| CC(C)n1cnnc1-c1cccc(N2COc3ccc(-c4ccc(S(C)(=O)=O)cc4)cc3C2=O)n1 [Example 2, 3-(6-(4-isopropyl-4H-1,2,4-triazol-3-yl)pyridin-2-yl)-6-(4-(methylsulfonyl)phenyl)-2,3-dihydro-4H-benzo[e][1,3]oxazin-4-one] | 50 nM |
| Cc1ccnc(Nc2ccc3c(c2)C(=O)N(c2cccc(-c4nncn4C(C)C)n2)CO3)n1 [Example 4, 3-(6-(4-isopropyl-4H-1,2,4-triazol-3-yl)pyridin-2-yl)-6-(4-methylpyrimidin-2-ylamino)-2,3-dihydro-4H-benzo[e][1,3]oxazin-4-one] | 7.8 nM |
| CC(C)n1cnnc1-c1cccc(N2COc3ccc(-c4cnn(C5CCOC5)c4)cc3C2=O)n1 (stereo not shown) [Example 5, 3-(6-(4-isopropyl-4H-1,2,4-triazol-3-yl)pyridin-2-yl)-6-(1-(tetrahydrofuran-3-yl)-1H-pyrazol-4-yl)-2,3-dihydro-4H-benzo[e][1,3]oxazin-4-one] | 38.8 nM |
| CC(C)n1cnnc1-c1cccc(N2COc3ccc(-c4cnn(C5CC5)c4)cc3C2=O)n1 [Example 8, 6-(1-cyclopropyl-1H-pyrazol-4-yl)-3-(6-(4-isopropyl-4H-1,2,4-triazol-3-yl)pyridin-2-yl)-2,3-dihydro-4H-benzo[e][1,3]oxazin-4-one] | 13.8 nM |
| CC(C)Cn1cc(-c2ccc3c(c2)C(=O)N(c2cccc(-c4nncn4C(C)C)n2)CO3)cn1 [Example 9, 6-(1-isobutyl-1H-pyrazol-4-yl)-3-(6-(4-isopropyl-4H-1,2,4-triazol-3-yl)pyridin-2-yl)-2,3-dihydro-4H-benzo[e][1,3]oxazin-4-one] | 11 nM |
| CC(C)CCn1cc(-c2ccc3c(c2)C(=O)N(c2cccc(-c4nncn4C(C)C)n2)CO3)cn1 [Example 11, 6-(1-isopentyl-1H-pyrazol-4-yl)-3-(6-(4-isopropyl-4H-1,2,4-triazol-3-yl)pyridin-2-yl)-2,3-dihydro-4H-benzo[e][1,3]oxazin-4-one] | 18.5 nM |
| CC(C)n1cnnc1-c1cccc(N2COc3ccc(-c4ccc(C5(C#N)CC5)cc4)cc3C2=O)n1 [Example 12, 1-(4-(3-(6-(4-isopropyl-4H-1,2,4-triazol-3-yl)pyridin-2-yl)-4-oxo-3,4-dihydro-2H-benzo[e][1,3]oxazin-6-yl)phenyl) cyclopropanecarbonitrile] | 17 nM |
| CC(C)n1cnnc1-c1cccc(N2COc3ccc(-c4ccc(Cn5cccn5)cc4)cc3C2=O)n1 [Example 13, 6-(4-((1H-pyrazol-1-yl)methyl)phenyl)-3-(6-(4-isopropyl-4H-1,2,4-triazol-3-yl)pyridin-2-yl)-2,3-dihydro-4H-benzo[e][1,3]oxazin-4-one] | 46.4 nM |
| Cc1cc2c(cc1-c1cnn(C(C)C)c1)C(=O)N(c1cccc(-c3nncn3C(C)C)n1)CO2 [Example 15, 6-(1-isopropyl-1H-pyrazol-4-yl)-3-(6-(4-isopropyl-4H-1,2,4-triazol-3-yl)pyridin-2-yl)-7-methyl-2,3-dihydro-4H-benzo[e][1,3]oxazin-4-one] | 4.5 nM |
| CSc1ncc(-c2cc3c(cc2C)OCN(c2cccc(-c4nncn4C(C)C)n2)C3=O)cn1 [Example 17, 3-(6-(4-isopropyl-4H-1,2,4-triazol-3-yl)pyridin-2-yl)-7-methyl-6-(2-(methylthio)pyrimidin-5-yl)-2,3-dihydro-4H-benzo[e][1,3]oxazin-4-one] | 7.8 nM |
| CC(C)n1cnnc1-c1cccc(N2COc3ccc(-n4cnc(C5CC5)c4)cc3C2=O)n1 [Example 19, 6-(4-cyclopropyl-1H-imidazol-1-yl)-3-(6-(4-isopropyl-4H-1,2,4-triazol-3-yl)pyridin-2-yl)-2,3-dihydro-4H-benzo[e][1,3]oxazin-4-one] | 4 nM |
| CCOC(C)n1cc(-c2cc3c(cc2C)OCN(c2cccc(-c4nncn4C(C)C)n2)C3=O)cn1 (stereo not shown) [Example 20, 6-(1-(1-ethoxyethyl)-1H-pyrazol-4-yl)-3-(6-(4-isopropyl-4H-1,2,4-triazol-3-yl)pyridin-2-yl)-7-methyl-2,3-dihydro-4H-benzo[e][1,3]oxazin-4-one] | 3.6 nM |
| CC(C)n1cnnc1-c1cccc(N2CSc3ccc(-c4cnn(CC5CC5)c4)cc3C2=O)n1 [Example 21, 6-(1-(cyclopropylmethyl)-1H-pyrazol-4-yl)-3-(6-(4-isopropyl-4H-1,2,4-triazol-3-yl)pyridin-2-yl)-2,3-dihydro-4H-benzo[e][1,3]thiazin-4-one] | 7.3 nM |
| CC(C)n1cc(-c2ccc3c(c2)C(=O)N(c2cccc(-c4nncn4C(C)C)n2)CS3)cn1 [Example 22, 6-(1-isopropyl-1H-pyrazol-4-yl)-3-(6-(4-isopropyl-4H-1,2,4-triazol-3-yl)pyridin-2-yl)-2,3-dihydro-4H-benzo[e][1,3]thiazin-4-one] | 6.1 nM |
| CC(C)n1cnnc1-c1cccc(N2CSc3ccc(-c4cnn(C5CC5)c4)cc3C2=O)n1 [Example 24, 6-(1-cyclopropyl-1H-pyrazol-4-yl)-3-(6-(4-isopropyl-4H-1,2,4-triazol-3-yl)pyridin-2-yl)-2,3-dihydro-4H-benzo[e][1,3]thiazin-4-one] | 26.2 nM |

The remaining lines, values ahead:

| IC50 | Compound |
| --- | --- |
| 9.1 nM | CC(C)n1cnnc1-c1cccc(N2COc3ccc(-c4ccncc4)cc3C2=O)n1 [Example 3, 3-(6-(4-isopropyl-4H-1,2,4-triazol-3-yl)pyridin-2-yl)-6-(pyridin-4-yl)-2,3-dihydro-4H-benzo[e][1,3]oxazin-4-one] |
| 29.2 nM | CCOC(C)n1cc(-c2ccc3c(c2)C(=O)N(c2cccc(-c4nncn4C(C)C)n2)CO3)cn1 (stereo not shown) [Example 6, 6-(1-(1-ethoxyethyl)-1H-pyrazol-4-yl)-3-(6-(4-isopropyl-4H-1,2,4-triazol-3-yl)pyridin-2-yl)-2,3-dihydro-4H-benzo[e][1,3]oxazin-4-one] |
| 33.1 nM | CC(C)n1cnnc1-c1cccc(N2COc3ccc(-c4cnn(C(F)F)c4)cc3C2=O)n1 [Example 7, 6-(1-(difluoromethyl)-1H-pyrazol-4-yl)-3-(6-(4-isopropyl-4H-1,2,4-triazol-3-yl)pyridin-2-yl)-2,3-dihydro-4H-benzo[e][1,3]oxazin-4-one] |
| 7.2 nM | CC(C)n1cnnc1-c1cccc(N2COc3ccc(Nc4nccc(C(F)F)n4)cc3C2=O)n1 [Example 10, 6-(4-(difluoromethyl)pyrimidin-2-ylamino)-3-(6-(4-isopropyl-4H-1,2,4-triazol-3-yl)pyridin-2-yl)-2,3-dihydro-4H-benzo[e][1,3]oxazin-4-one] |
| 4.4 nM | Cc1cc2c(cc1-c1cnn(CC3CC3)c1)C(=O)N(c1cccc(-c3nncn3C(C)C)n1)CO2 [Example 14, 6-(1-(cyclopropylmethyl)-1H-pyrazol-4-yl)-3-(6-(4-isopropyl-4H-1,2,4-triazol-3-yl)pyridin-2-yl)-7-methyl-2,3-dihydro-4H-benzo[e][1,3]oxazin-4-one] |
| 20 nM | Cc1cc2c(cc1-c1cncnc1)C(=O)N(c1cccc(-c3nncn3C(C)C)n1)CO2 [Example 16, 3-(6-(4-isopropyl-4H-1,2,4-triazol-3-yl)pyridin-2-yl)-7-methyl-6-(pyrimidin-5-yl)-2,3-dihydro-4H-benzo[e][1,3]oxazin-4-one] |
| 10.6 nM | Cc1cc2c(cc1-c1cnn(C3CCOC3)c1)C(=O)N(c1cccc(-c3nncn3C(C)C)n1)CO2 (stereo not shown) [Example 18, 3-(6-(4-isopropyl-4H-1,2,4-triazol-3-yl)pyridin-2-yl)-7-methyl-6-(1-(tetrahydrofuran-3-yl)-1H-pyrazol-4-yl)-2,3-dihydro-4H-benzo[e][1,3]oxazin-4-one] |
| 23.1 nM | CC(C)n1cnnc1-c1cccc(N2CSc3ccc(-c4cnc(C5CC5)nc4)cc3C2=O)n1 [Example 23, 6-(2-cyclopropylpyrimidin-5-yl)-3-(6-(4-isopropyl-4H-1,2,4-triazol-3-yl)pyridin-2-yl)-2,3-dihydro-4H-benzo[e][1,3]thiazin-4-one] |
| 76.8 nM | Cc1ncc(-c2ccc3c(c2)C(=O)N(c2cccc(-c4nncn4C(C)C)n2)CS3)cn1 [Example 25, 3-(6-(4-isopropyl-4H-1,2,4-triazol-3-yl)pyridin-2-yl)-6-(2-methylpyrimidin-5-yl)-2,3-dihydro-4H-benzo[e][1,3]thiazin-4-one] |
